pIC50: −log10 of the molar value. Where only a bound is given, the exact number is not on record here.

Experiment [1] addresses T1, GRK2 (Homo sapiens, UniProt P25098).
T1 construct: purchased SignalChem A14-10G
T1 sequence (P25098 1-689): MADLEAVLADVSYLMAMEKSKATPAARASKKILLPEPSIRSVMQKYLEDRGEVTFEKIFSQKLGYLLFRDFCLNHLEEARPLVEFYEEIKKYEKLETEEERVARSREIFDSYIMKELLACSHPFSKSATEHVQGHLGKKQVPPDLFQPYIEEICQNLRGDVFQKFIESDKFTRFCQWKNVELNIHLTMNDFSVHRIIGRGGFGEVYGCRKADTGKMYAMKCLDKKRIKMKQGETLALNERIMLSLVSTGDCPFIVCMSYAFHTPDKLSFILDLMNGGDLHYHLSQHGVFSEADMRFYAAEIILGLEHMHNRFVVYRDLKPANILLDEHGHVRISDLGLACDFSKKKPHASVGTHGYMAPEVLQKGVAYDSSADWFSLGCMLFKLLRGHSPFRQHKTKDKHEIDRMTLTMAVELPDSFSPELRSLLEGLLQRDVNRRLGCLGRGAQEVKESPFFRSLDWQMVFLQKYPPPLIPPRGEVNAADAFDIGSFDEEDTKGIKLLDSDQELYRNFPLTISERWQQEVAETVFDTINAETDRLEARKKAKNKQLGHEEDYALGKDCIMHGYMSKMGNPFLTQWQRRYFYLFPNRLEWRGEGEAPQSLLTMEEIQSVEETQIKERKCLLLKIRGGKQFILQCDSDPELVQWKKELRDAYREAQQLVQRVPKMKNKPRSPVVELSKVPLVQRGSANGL
Kind of experiment: ADPGlo GRK2 Inhibition Assay (Example 8). Format: biochemical. To be noted: Enzyme Assay A, ADPGlo (Example 8); read-out: A: Enzymatic GRK2: IC50 (nM) (Example 8). An outline of the steps: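 GRK2 (15 nM 2× enzyme solution) was preincubated 15 min with compound, then reacted 180 min at room temperature with 2× mix of 20 μM ATP plus GRKtide in HEPES pH 7.5, MgCl2, Tween-20, DTT. ADP was detected by ADP-Glo luminescence. Percent inhibition was normalised to enzyme and no-enzyme controls, with dose-response curves from threefold dilutions starting at 100 μM.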
For orientation: In ADP-Glo the light output rises with the ADP produced.

Experiment [2] concerns PAXF1657 control empty vector cell line. The experiment in a line: 7-day proliferation assay, PAXF1657 control empty vector cell line (Example 9). Format: cell-based. To be noted: 168 h; Cell Line: PAXF1657 empty vector (EV) cell line; 7-day; read-out: C: 7-day proliferation assay: IC50 GeoMean. An outline of the steps: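 PAXF1657 isogenic lines (GRK2-overexpressing vs empty vector; CRISPR GRK2 knockout vs non-targeting control clones) seeded 500 cells/well in RPMI1640/10% FBS and treated next day with 10-point dilutions, 30 μM-0.0002 μM final, 0.3% DMSO. Media with compound refreshed after 3 days; viability read by CellTiter-Glo luminescence at day 7.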

One may read the IC50 as the point on the concentration scale where inhibition reaches its midpoint. Take `Cc1ccnc(CNC(=O)c2cccc(NCc3nnc(-c4ccncn4)n3C)c2)c1`: the IC50 in experiment [1] was found to be 430 nM. Moreover, the pIC50 in experiment [2] is below 5.00.

On to `Cn1c(CNc2cccc(C(=O)NCc3cccnc3)c2)nnc1-c1ccncn1`, for which the IC50 in experiment [1] worked out at 540 nM. Besides, the pIC50 in experiment [2] is below 5.00.

Turning to `CC(NC(=O)c1cccc(NCc2nnc(-c3ccncn3)n2C)c1)c1cnn(C)c1` (stereo not drawn), in experiment [1], the concentration for half-maximal inhibition (IC50) stood at 17 nM. Moreover, in experiment [2], the pIC50 was 6.72.

As to `Cn1c(CNc2cccc(C(=O)NCc3cccc4ncccc34)c2)nnc1-c1ccncn1`, the concentration for half-maximal inhibition (IC50) in experiment [1] is 11 nM. Moreover, the pIC50 in experiment [2] was below 5.00.

Turning to `Cc1nn(C)c(C)c1CNC(=O)c1cccc(NCc2nnc(-c3ccncn3)n2C)c1`, in experiment [1], the IC50 is 26 nM. In experiment [2], the pIC50 is below 5.00.

Regarding `Cc1noc(C)c1CNC(=O)c1cccc(NCc2nnc(-c3ccncn3)n2C)c1`, the IC50 in experiment [1] stood at 19 nM. Further, the pIC50 in experiment [2] was 6.76.

On to `Cc1nc(C)c(CNC(=O)c2cccc(NCc3nnc(-c4ccncn4)n3C)c2)s1`, for which, in experiment [1], the IC50 came to 26 nM. The pIC50 in experiment [2] is below 5.00.

Take `CC(NC(=O)c1cccc(NCc2nnc(-c3ccncn3)n2C)c1)c1ccn(C)n1` (stereo not drawn): the IC50 in experiment [1] was found to be 27 nM. Further, in experiment [2], the pIC50 is 5.67.

For `COc1cc(F)cc(CNC(=O)c2cccc(NCc3nnc(-c4ccncn4)n3C)c2)c1`, the IC50 in experiment [1] came out at 54 nM. The pIC50 in experiment [2] was below 5.00.

Turning to `Cc1ccccc1C(CO)NC(=O)c1cccc(NCc2nnc(-c3ccncn3)n2C)c1` (stereo not drawn), in experiment [1], the concentration for half-maximal inhibition (IC50) came to 33 nM. Also, the pIC50 in experiment [2] was 5.06.

Turning to `Cn1c(CNc2cccc(C(=O)NCc3ccc4c(c3)CCO4)c2)nnc1-c1ccncn1`, the 50% inhibitory concentration (IC50) in experiment [1] was 16 nM. Further, the pIC50 in experiment [2] is 5.78.

Consider `Cc1nc(C)c(CNC(=O)c2cccc(NCc3nnc(-c4ccncc4)[nH]3)c2)nc1C`, for which the IC50 in experiment [1] stood at 28 nM. Moreover, the pIC50 in experiment [2] is below 5.00.

`Cc1ncccc1CNC(=O)c1cccc(NCc2nnc(-c3ccncc3)[nH]2)c1`: the IC50 in experiment [1] stood at 19 nM. Also, in experiment [2], the pIC50 was below 5.00.

For `O=C(NCc1nccc(C(F)F)n1)c1cccc(NCc2nnc(-c3ccncc3)[nH]2)c1`, in experiment [1], the 50% inhibitory concentration (IC50) was found to be 27 nM. Besides, the pIC50 in experiment [2] was below 5.00.

Regarding `CCn1ncc(Cl)c1CNC(=O)c1cccc(NCc2nnc(-c3ccncc3)[nH]2)c1`, the IC50 in experiment [1] worked out at 12 nM. Also, the pIC50 in experiment [2] was 6.25.

On to `O=C(NCc1ccccc1-n1cncn1)c1cccc(NCc2nnc(-c3ccncc3)[nH]2)c1`, for which the half-inhibitory concentration (IC50) in experiment [1] was 19 nM. Moreover, the pIC50 in experiment [2] is below 5.00.

Take `COc1cnccc1CNC(=O)c1cccc(NCc2nnc(-c3ccncc3)[nH]2)c1`: the concentration for half-maximal inhibition (IC50) in experiment [1] was 26 nM. In experiment [2], the pIC50 was below 5.00.

As for `O=C(NC1(c2ccncn2)CC1)c1cccc(NCc2nnc(-c3ccncc3)[nH]2)c1`, the IC50 in experiment [1] is 13 nM. In experiment [2], the pIC50 is below 5.00.

In the case of `CC(NC(=O)c1cccc(NCc2nnc(-c3ccncc3)[nH]2)c1)c1cnco1` (stereo not drawn), the IC50 in experiment [1] is 24 nM. The pIC50 in experiment [2] was below 5.00.

In the case of `Cc1cnc(C(C)NC(=O)c2cccc(NCc3nnc(-c4ccncc4)[nH]3)c2)o1` (stereo not drawn), the IC50 in experiment [1] came to 16 nM. Further, the pIC50 in experiment [2] is below 5.00.

Regarding `O=C(NCc1nnc2n1CCCC2)c1cccc(NCc2nnc(-c3ccncc3)[nH]2)c1`, the IC50 in experiment [1] is 48 nM. Besides, the pIC50 in experiment [2] is below 5.00.

For the molecule `O=C(NCc1ccncc1)c1cccc(NCc2nnc(-c3ccncc3)[nH]2)c1`, in experiment [1], the concentration for half-maximal inhibition (IC50) was 12 nM. Further, in experiment [2], the pIC50 was 5.24.

`CCc1nc(CNC(=O)c2cccc(NCc3nnc(-c4ccncc4)[nH]3)c2)c(C)o1`: the IC50 in experiment [1] was determined as 8.4 nM. For the same molecule, the pIC50 in experiment [2] is 6.06.

As to `O=C(NCc1ncccn1)c1cccc(NCc2nnc(-c3ccncc3)[nH]2)c1`, in experiment [1], the IC50 turned out to be 17 nM. Further, the pIC50 in experiment [2] was below 5.00.

For the molecule `O=C(NCc1ncco1)c1cccc(NCc2nnc(-c3ccncc3)[nH]2)c1`, the concentration for half-maximal inhibition (IC50) in experiment [1] was found to be 25 nM. In experiment [2], the pIC50 is below 5.00.

With `CCn1nc(C)c(CNC(=O)c2cccc(NCc3nnc(-c4ccncc4)[nH]3)c2)n1`, the half-inhibitory concentration (IC50) in experiment [1] is 18 nM. In addition, the pIC50 in experiment [2] is 5.51.

For the molecule `O=C(NCc1nncn1C1CC1)c1cccc(NCc2nnc(-c3ccncc3)[nH]2)c1`, the IC50 in experiment [1] was determined as 45 nM. Moreover, the pIC50 in experiment [2] was below 5.00.

On to `COC[C@H](NC(=O)c1cccc(NCc2nnc(-c3ccncc3)[nH]2)c1)c1ccccn1`, for which the IC50 in experiment [1] was 11 nM. The pIC50 in experiment [2] was 6.39.

Regarding `Cc1nnc(CNC(=O)c2cccc(NCc3nnc(-c4ccncc4)[nH]3)c2)n1C1CC1`, the 50% inhibitory concentration (IC50) in experiment [1] worked out at 19 nM. Also, the pIC50 in experiment [2] is below 5.00.

As for `O=C(NCc1cncc(F)c1)c1cccc(NCc2nnc(-c3ccncc3)[nH]2)c1`, the IC50 in experiment [1] came out at 17 nM. Moreover, the pIC50 in experiment [2] was below 5.00.

`O=C(NCc1cncnc1)c1cccc(NCc2nnc(-c3ccncc3)[nH]2)c1`: the IC50 in experiment [1] stood at 34 nM. In experiment [2], the pIC50 is below 5.00.

In the case of `Cc1noc(C)c1CNC(=O)c1cccc(NCc2nnc(-c3ccncc3)[nH]2)c1`, the IC50 in experiment [1] came to 24 nM. Further, in experiment [2], the pIC50 was below 5.00.

In the case of `CC(C)n1cnnc1CNC(=O)c1cccc(NCc2nnc(-c3ccncc3)[nH]2)c1`, in experiment [1], the IC50 turned out to be 210 nM. The pIC50 in experiment [2] is below 5.00.

Regarding `CC(NC(=O)c1cccc(NCc2nnc(-c3ccncc3)[nH]2)c1)c1ccon1` (stereo not drawn), in experiment [1], the IC50 was 20 nM. Also, the pIC50 in experiment [2] was below 5.00.

With `CC1CC(NC(=O)c2cccc(NCc3nnc(-c4ccncc4)[nH]3)c2)c2ncnn21` (stereo not drawn), the half-inhibitory concentration (IC50) in experiment [1] was 37 nM. In addition, the pIC50 in experiment [2] is below 5.00.

As to `O=C(NC1CCCn2ncnc21)c1cccc(NCc2nnc(-c3ccncc3)[nH]2)c1` (stereo not drawn), in experiment [1], the half-maximal inhibitory concentration (IC50) is 20 nM. The pIC50 in experiment [2] was below 5.00.

As for `O=C(NC1CCCc2nccnc21)c1cccc(NCc2nnc(-c3ccncc3)[nH]2)c1` (stereo not drawn), in experiment [1], the IC50 turned out to be 12 nM. Besides, in experiment [2], the pIC50 is 6.13.

Take `O=C(NC(CO)c1ccccn1)c1cccc(NCc2nnc(-c3ccncc3)[nH]2)c1` (stereo not drawn): the concentration for half-maximal inhibition (IC50) in experiment [1] was 20 nM. Further, in experiment [2], the pIC50 was below 5.00.

Consider `Cc1ocnc1CNC(=O)c1cccc(NCc2nnc(-c3ccncc3)[nH]2)c1`, for which the IC50 in experiment [1] was 8.3 nM. In experiment [2], the pIC50 was below 5.12.

On to `O=C(NCc1cnccn1)c1cccc(NCc2nnc(-c3ccncc3)[nH]2)c1`, for which the half-inhibitory concentration (IC50) in experiment [1] is 25 nM. In addition, the pIC50 in experiment [2] is below 5.00.

`Cn1c(CNc2cccc(C(=O)N[C@@H](CO)c3cc(F)ccc3F)c2)nnc1-c1ccncn1`: the IC50 in experiment [1] came to 10 nM. In addition, the pIC50 in experiment [2] was below 4.52.

For the molecule `Cn1c(CNc2cccc(C(=O)NC(CO)c3ccc(F)cc3)c2)nnc1-c1ccncn1` (stereo not drawn), the IC50 in experiment [1] was found to be 14 nM. For the same molecule, the pIC50 in experiment [2] was below 4.52.

As for `Cc1cncc(CNC(=O)c2cccc(NCc3nnc(-c4ccncn4)n3C)c2)c1`, the IC50 in experiment [1] was 15 nM. Moreover, in experiment [2], the pIC50 is below 4.52.

For `Cc1ccn2c(CNC(=O)c3cccc(NCc4nnc(-c5ccncn5)n4C)c3)nnc2c1`, the half-maximal inhibitory concentration (IC50) in experiment [1] amounted to 14 nM. Besides, in experiment [2], the pIC50 was below 4.52.

For `CC(NC(=O)c1cccc(NCc2nnc(-c3ccncn3)n2C)c1)c1ccncc1` (stereo not drawn), the IC50 in experiment [1] is 11 nM. Also, in experiment [2], the pIC50 is 5.67.

Regarding `Cc1nn(C)cc1CNC(=O)c1cccc(NCc2nnc(-c3ccncn3)n2C)c1`, the IC50 in experiment [1] was found to be 19 nM. The pIC50 in experiment [2] is 5.21.

For `Cc1cc(CNC(=O)c2cccc(NCc3nnc(-c4ccncn4)n3C)c2)n(C)n1`, the IC50 in experiment [1] stood at 17 nM. For the same molecule, the pIC50 in experiment [2] is 5.38.

As for `CC(NC(=O)c1cccc(NCc2nnc(-c3ccncn3)n2C)c1)c1ccccn1` (stereo not drawn), the 50% inhibitory concentration (IC50) in experiment [1] was 29 nM. Further, the pIC50 in experiment [2] is 6.28.

Values taken from patent US20230009608A1, “GRK2 INHIBITORS AND USES THEREOF” (Cygnal Therapeutics, Inc., priority 2020, published 2023).
